How the values were obtained:
[1] = system: Mper1-luc Rat-1 (P2C4) fibroblasts; assay: Circadian cell assay (mPer1-luciferase reporter, period prolongation); type: cell-based; conditions: effective concentration that induced a 1-hour prolongation of the circadian period, interpolated from hyperbolic curve
Procedure: Experimental Protocols for Circadian Cell Assay
Mper1-luc Rat-1 (P2C4) fibroblast cultures were prepared by dividing the cultures every 3-4 days (approximately 10-20% of confluence) on 150 cm^2 degassed polystyrene tissue culture flasks (Falcon® #35-5001) and maintained in growth medium [EMEM (Cellgro #10-010-CV); 10% fetal bovine serum (FBS; Gibco #16000-044); and 50 I.U./ml of penicillin-streptomycin (Cellgro #30-001-CI)] at 37° C. and under 5% CO2.
Cells obtained from Rat-1 fibroblast cultures at 30-50% of confluence as described above were co-transfected with vectors containing the selection marker for resistance to zeocin for a stable transfection and a luciferase reporter gene controlled by the mPer-1 promoter. After 24 to 48 hours, the cultures were divided on 96-well plates and maintained in growth medium supplemented with 50-100 μg/ml of zeocin (Invitrogen® #45-0430) for 10-14 days. The zeocin-resistant stable transfectants were evaluated for the expression of the reporter by adding 100 μM lucerfin (Promega® #E1603®) to the growth medium and by assaying the luciferase activity on a TopCount® scintillation counter (Packard Model #C384V00). The Rat-1 cell clones expressing both zeocin resistance and lucerifase activity controlled by mPer1 were serum-shock synchronized with 50% horse serum [HS (Gibco® #16050-122)] and the activity of the circadian reporter was evaluated. The P2C4 clone of Mper1-luc Rat-1 fibroblasts was selected to test the compound.
Mper1-luc Rat-1 (P2C4) fibroblasts at 40-50% of confluence, obtained according to the protocol described above, were plated out onto 96-well opaque tissue culture plates (Perkin Elmer® #6005680). The cultures are maintained in growth medium supplemented with 100 μg/ml of zeocin (Invitrogen #45-0430) until they reach 100% of confluence (48-72 h). The cultures were then synchronized with 100 μl of synchronization medium [EMEM (Cellgro #10-010-CV); 100 I.U./ml of penicillin-streptomycin (Cellgro #30-001-C1); 50% HS (Gibco #16050-122)] for 2 hours at 37° C. and under 5% CO2. After synchronization, the cultures were rinsed with 100 μl of EMEM (Cellgro #10-010-CV) for 10 minutes at ambient temperature. […]
The period analysis was performed either by determining the interval between the relative light emission minima over several days or by Fourier transform. […] The data were analyzed by adjusting a hyperbolic curve to the data expressed as change of period (y-axis) as a function of the concentration of the test compound (x-axis) in the XLfit™ software and the CE Delta (t+1 h) was interpolated from this curve.

[2] = target: T1, casein kinase 1 epsilon (CK1 epsilon) (Homo sapiens, UniProt P49674); assay: Filter-plate assay of ATP-33P, inhibition of casein phosphorylation by CK1 epsilon; type: biochemical; conditions: casein substrate, ATP 10 μM, 2 hours at ambient temperature
T1 construct: Invitrogen Corporation (named as alternative)
T1 sequence (P49674 whole entry): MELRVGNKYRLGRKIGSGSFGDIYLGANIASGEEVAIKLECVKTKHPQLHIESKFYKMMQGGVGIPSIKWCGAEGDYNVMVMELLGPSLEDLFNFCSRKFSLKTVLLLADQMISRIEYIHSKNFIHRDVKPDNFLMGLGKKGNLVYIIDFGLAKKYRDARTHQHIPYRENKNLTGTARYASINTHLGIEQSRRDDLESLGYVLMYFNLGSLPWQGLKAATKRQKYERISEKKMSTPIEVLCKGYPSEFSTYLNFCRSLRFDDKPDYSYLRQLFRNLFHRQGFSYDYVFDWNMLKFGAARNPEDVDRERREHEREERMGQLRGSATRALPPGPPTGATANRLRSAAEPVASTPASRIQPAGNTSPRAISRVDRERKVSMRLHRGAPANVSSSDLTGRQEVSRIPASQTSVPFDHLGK
Procedure: The capacity of the compounds of the invention to inhibit the phosphorylation of casein by casein kinase 1 epsilon and delta may be evaluated according to the procedure described in US 2005/0131012.
Filter-Plate Assay of ATP-^33P for the Screening of CK1 Epsilon Inhibitors:
The effect of the compounds on inhibition of the phosphorylation of casein by the enzyme casein kinase 1 epsilon (CK1 epsilon) is measured, using a casein assay with filtration of ATP-^33P in vitro.
Casein kinase 1 epsilon (0.58 mg/ml) is obtained via fermentation and purification processes performed according to methods that are well known to those skilled in the art, or may also be obtained from Invitrogen Corporation™ (human CK1 epsilon).
The compounds are tested at five different concentrations so as to generate IC50 values, i.e. the concentration at which a compound is capable of inhibiting the enzymatic activity by 50%, or alternatively the percentage of inhibition at a concentration of 10 micromolar.
“U”-bottomed Falcon plates are prepared by placing 5 μL of solutions of the compounds according to the invention at concentrations of 10, 1, 0.1, 0.01 or 0.001 μM in various wells. The solutions of the compounds according to the invention at these various concentrations are prepared by diluting in a test buffer (50 mM Tris, pH 7.5, […], 2 mM DTT and 1 mM EGTA) a stock solution in DMSO at a concentration of 10 mM. Next, 5 μL of dephosphorylated casein are added to a final concentration of 0.2 μg/μL, 20 μl of CK1 epsilon to a final concentration of 3 ng/μl, and 20 μl of ATP-^33P to a final concentration of 0.02 μCi/μl mixed with cold ATP (10 μM final—approximately 2×10^6 CPM per well). The final total test volume per well is equal to 50 μl.
The “U”-bottomed Falcon® test plate mentioned above is vortexed, and then incubated at ambient temperature for 2 hours. After 2 hours, the reaction is stopped by adding an ice-cold solution of 65 μl of ATP (2 mM) prepared in test buffer.
100 μl of the reaction mixture are then transferred from the “U”-bottomed Falcon® plate into Millipore® MAPH filter plates, preimpregnated with 25 μl of ice-cold 100% TCA. […]
The plates are left to dry overnight at ambient temperature. […] The radiation emitted by each well is then measured for 2 minutes in a Packard® Topcount NXT scintillation counter, in which the values of CPM/well are measured.
The percentage inhibition of the capacity of the enzyme to phosphorylate the substrate (casein) is determined for each concentration of compound tested. These inhibition data expressed as percentages are used to calculate the IC50 value for each compound compared with the controls.
The kinetic studies determined the KM value for ATP as being 21 μM in this test system.

human CK1 delta = target: T2, human CK1 delta (Homo sapiens, UniProt P48730); assay: FRET fluorescence test (Z'Lyte kinase assay Kit), CK1 delta; type: biochemical; conditions: peptide substrate SER/THR 11 2 μM, ATP 4 times the KM
T2 construct: purchased Invitrogen Corporation PV3665
T2 sequence (P48730 whole entry): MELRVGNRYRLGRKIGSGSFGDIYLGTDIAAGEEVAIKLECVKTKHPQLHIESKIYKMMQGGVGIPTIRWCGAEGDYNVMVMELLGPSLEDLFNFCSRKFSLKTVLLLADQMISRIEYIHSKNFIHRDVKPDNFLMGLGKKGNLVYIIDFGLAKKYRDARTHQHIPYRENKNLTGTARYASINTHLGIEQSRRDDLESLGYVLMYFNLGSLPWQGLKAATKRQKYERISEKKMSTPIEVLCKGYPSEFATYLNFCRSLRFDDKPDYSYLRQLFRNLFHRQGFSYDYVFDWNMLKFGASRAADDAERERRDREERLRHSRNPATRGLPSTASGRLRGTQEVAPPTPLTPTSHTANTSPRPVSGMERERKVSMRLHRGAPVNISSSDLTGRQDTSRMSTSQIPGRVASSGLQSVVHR
Excerpt: The capacity of the compounds of the invention to inhibit the phosphorylation of casein by casein kinase 1 epsilon and delta may be evaluated using a FRET (“Fluorescence Resonance Energy Transfer) fluorescence test with the aid of the “Z′Lyte™ kinase assay Kit” (reference PV3670; Invitrogen Corporation™) according to the manufacturer's instructions.
The casein kinases 1 used are obtained from Invitrogen Corporation (human CK1 epsilon PV3500 and human CK1 delta PV3665).
A peptide substrate, labeled at both ends with a fluorophore donor group (coumarin) and a fluorophore acceptor group ([…]) constituting a FRET system is phosphorylated in the presence of ATP by casein kinase 1 epsilon or delta in the presence increasing concentrations of compounds of the invention. The mixture is treated with a site-specific protease that specifically cleaves the peptide substrate to form two fluorescent fragments having a large fluorescence emission ratio.
The fluorescence observed is thus related to the capacity of the products of the invention to inhibit the phosphorylation of the peptide substrate by casein kinase 1 epsilon or casein kinase 1 delta.
The compounds of the invention are dissolved at different concentrations starting with a 10 mM stock solution in DMSO diluted in a buffer containing 50 mM HEPS, pH 7.5, 1 m MEGTA, 0.01% Brij-35, 10 mM MgCl for casein kinase 1 epsilon and supplemented with Trizma Base (50 mM), pH 8.0, and NaN3 (0.01% final) for casein kinase 1 delta.
The phosphorylation of the peptide substrate SER/THR 11 obtained from Invitrogen Corporation™ is performed at a final concentration of 2 μM. The ATP concentration is 4 times the KM, this value being 2 μM for casein kinase 1 epsilon and 4 μM for casein kinase 1 delta.
The emitted fluorescence is measured at wavelengths of 445 and 520 nm (excitation at 400 nm).

SMILES	CE Delta (t + 1 h) [1] [nM]	melting point [°C]	IC50 [2] [µM]	IC50 (human CK1 delta) [µM]
OCC1CN(c2ccc3nc(-c4ccc(F)cc4)c(-c4ccnnc4)n3n2)CCN1 (racemic) [compound 39, (+/−)-{4-[2-(4-fluorophenyl)-3-pyridazin-4-ylimidazo[1,2-b]pyridazin-6-yl]piperazin-2-yl}methanol]	178	205 to 212	0.098	
CC(C)N1CCN(c2ccc3nc(-c4ccc(F)cc4)c(-c4ccnnc4)n3n2)CC1 [Compound No. 11, 2-(4-fluorophenyl)-6-(4-isopropyl-piperazin-1-yl)-3-(pyridazin-4-yl)imidazo[1,2-b]pyridazine]				0.05 to 0.065
Fc1ccc(-c2nc3ccc(N4CCNCC4)nn3c2-c2ccnnc2)cc1 [Compound No. 1, 2-(4-fluorophenyl)-6-(piperazin-1-yl)-3-(pyridazin-4-yl)imidazo[1,2-b]pyridazine]				0.001
C[C@@H]1CN(c2ccc3nc(-c4ccc(F)cc4)c(-c4ccnnc4)n3n2)CCN1 [Compound No. 2, 2-(4-fluorophenyl)-6-((R)-3-methylpiperazin-1-yl)-3-(pyridazin-4-yl)imidazo[1,2-b]pyridazine]	164			
CC(C)N1CCN(c2ccc3nc(-c4ccc(F)c(F)c4)c(-c4ccnnc4)n3n2)CC1 [compound 14, 2-(3,4-difluorophenyl)-6-(4-isopropylpiperazin-1-yl)-3-pyridazin-4-yl-imidazo[1,2-b]pyridazine]	62	192 to 194		
